Experimental data taken from US6069166A, “Fused heterocyclic benzenecarboxamide derivatives and PGD2 antagonists comprising them” (Shionogi & Co., Ltd., priority 1996, dated 2000).

Key:
[1] = system: nasal blockage (intranasal pressure); assay: Nasal blockage model in sensitized guinea pigs (intranasal pressure after OVA challenge); assay type: in vivo, Hartley male guinea pig; details: oral, 60 min before antigen exposure; AUC of intranasal pressure 0-30 min vs vehicle; dose not given
Experimental: Experiment 3 Experiment Using Nasal Blockage Model
The method used for measuring the intranasal pressure for evaluating the anti-nasal blockage using guinea pigs is described below.
A 1% ovalbumin (OVA) solution was treated with an ultrasonic nebulizer to obtain an aerosol. Hartley male guinea pig was sensitized by inhaling twice the aerosol for 10 min at one-week interval. Seven-day after the sensitization, the guinea pig was exposed to an antigen to initiate the reaction. Briefly, the trachea was incised under the anesthesia with pentobarbital (30 mg/kg. i.p.) and cannulas were inserted into the trachea at the pulmonary and nasal cavity sides. The canal inserted at the pulmonary side was connected with an artificial respirator that provides 4 ml air 60 times/min. After arresting the spontaneous respiration of the guinea pig with Gallamin (2 mg/kg, i.v.), air was supplied to the snout side with an artificial respirator at the frequency of 70 times/min, and the flow rate of 4 ml air/time, and the atmospheric pressure required for the aeration was measured by the use of a transducer fitted at the branch. The measurement was used as a parameter of the nasal cavity resistance. The exposure of an antigen was carried out by generating aerosol of 3% OVA solution for 3 min between the respirator and the nasal cavity cannula. […]

[2] = molecular target: T1, PGD2 Receptor (Homo sapiens, UniProt Q13258); assay: Antagonistic activity against PGD2 receptor using human platelet (PGD2-induced cAMP increase); assay type: cell-based; details: human platelets 5×10^8/ml, 0.1 μM PGD2, IBMX 0.5 mM, cAMP by radioimmunoassay; read-out: IC50 (inhibition of cAMP increased by PGD2)
T1 construct: A suspension adjusted to contain platelet at a final concentration of; endogenous in cells; host or cells: washed human platelets from peripheral blood of a healthy volunteer
T1 sequence (Q13258 1-359): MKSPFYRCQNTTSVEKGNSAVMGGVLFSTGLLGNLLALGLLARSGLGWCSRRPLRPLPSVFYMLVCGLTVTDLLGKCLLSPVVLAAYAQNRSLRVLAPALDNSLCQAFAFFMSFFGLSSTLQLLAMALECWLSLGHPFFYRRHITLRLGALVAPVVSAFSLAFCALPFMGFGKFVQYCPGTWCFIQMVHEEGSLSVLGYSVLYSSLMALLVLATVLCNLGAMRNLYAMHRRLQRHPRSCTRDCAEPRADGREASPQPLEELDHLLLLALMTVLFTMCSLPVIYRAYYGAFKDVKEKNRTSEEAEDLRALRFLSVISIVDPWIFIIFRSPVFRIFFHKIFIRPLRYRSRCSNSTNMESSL
Experimental: Experiment 2 Evaluation of Antagonistic Activity Against PGD2 Receptor Using Human Platelet Peripheral blood was obtained from a healthy volunteer using a syringe in which 1/9 volume of citric acid/dextrose solution has been previously added. The syringe was subjected to centrifugation at 180 g for 10 min to obtain the supernatant (PRP:platelet rich plasma). The resultant PRP was washed 3 times with a washing buffer and the number of platelet was counted with a micro cell counter. A suspension adjusted to contain platelet at a final concentration of 5×10^8 /ml was warmed at 37° C., and then subjected to the pre-treatment with 3-isobutyl-1-methylxanthine (0.5 mM) for 5 min. To the suspension was added a test compound diluted at various concentration. Ten-minute later, the reaction was induced by the addition of 0.1 μM PGD2 and, 2-minute later, stopped by the addition of hydrochloric acid. The platelet was destroyed with an ultrasonic homogenizer. After centrifugation, the cAMP in the supernatant was determined by radioimmunoassay. PGD2 receptor antagonism of a drug was evaluated as follows. The inhibition rate regarding cAMP increased by the addition of PGD2 was determined at individual concentration, and then the concentration of the drug required for 50% inhibition (IC50) was calculated.

[3] = molecular target: T1, PGD2 Receptor; assay: Binding to PGD2 receptor (human platelet membrane fraction, [3H]PGD2); details: human platelet membrane fraction 0.1 mg, 5 nM [3H]PGD2, 4° C., 90 min, pH 7.4; read-out: IC50 (inhibition of [3H]PGD2 binding)
Experimental: Experiment 1 Binding to PGD2 Receptor
(1) Preparation of Human Platelet Membrane Fraction
Blood sample was obtained using a plastic syringe containing 3.8% sodium citrate from the vein of healthy volunteers (adult male and female), put into a plastic test tube and mixed gently by rotation. The sample was then centrifuged at 1800 rpm, 10 min at room temperature, and the supernatant containing PRP (platelet-rich plasma) was collected. The PRP was re-centrifuged at […], 22 min at room temperature to obtain platelets. The platelets were homogenized using a homogenizer (Ultra-Turrax) followed by centrifugation 3 times at 20,000 rpm, 10 min at 4° C. to obtain a platelet membrane fraction. After protein determination, the membrane fraction was adjusted to 2 mg/ml and preserved in a refrigerator at -80° C. until use.
(2) Binding to PGD2 Receptor
To a binding-reaction solution (50 mM Tris/HCl, pH 7.4, 5 mM MgCl2) (0.2 ml) were added the human platelet membrane fraction (0.1 mg) and 5 nM [^3 H]PGD2 (115Ci/mmol), and reacted at 4° C. for 90 min. After the reaction completed, the reaction mixture was filtered through a glass fiber filter paper, washed several times with cooled saline, and measured the radioactivity retained on the filter paper. The specific binding was calculated by subtracting the non-specific binding (the binding in the presence of 10 μM PGD2) from the total binding. The inhibitory activity of each compound was expressed as the concentration required for 50% inhibition (IC50), which was determined by depicting a substitution curve by plotting the binding ratio (%) in the presence of each compound, where the binding ratio in the absence of a test compound is 100%.

Structure (SMILES)	Inhibitory Rate (%) [1] [%]	IC50 [2] [µM]	IC50 [3] [µM]
CC1(C)[C@H]2C[C@H](C/C=C\CCCC(=O)O)[C@@H](NC(=O)c3cccc4ccsc34)[C@@H]1C2 [IA-a-1]	80	0.042	0.026
COc1csc2c(C(=O)N[C@@H]3[C@@H](C/C=C\CCCC(=O)O)C[C@H]4C[C@@H]3C4(C)C)cccc12 [IA-a-9]		0.0044	0.00041
Cc1csc2c(C(=O)N[C@@H]3[C@@H](C/C=C\CCCC(=O)O)C[C@H]4C[C@@H]3C4(C)C)cccc12 [IA-a-4]		0.15	0.011
CC1(C)[C@H]2C[C@H](C/C=C\CCCC(=O)O)[C@@H](NC(=O)c3cccc4c(Br)csc34)[C@@H]1C2 [IA-a-7]		0.011	0.0012
